This is an account of results in ChEMBL document CHEMBL5390231, “Development of small molecule inhibitors targeting RNA helicase DHX33 as anti-cancer agents” (Bioorg Med Chem Lett, 2023).

Experiment [1] deals with T1, ATP-dependent RNA helicase DHX33 (Mus musculus, UniProt Q80VY9).
T1 sequence (Q80VY9 whole entry): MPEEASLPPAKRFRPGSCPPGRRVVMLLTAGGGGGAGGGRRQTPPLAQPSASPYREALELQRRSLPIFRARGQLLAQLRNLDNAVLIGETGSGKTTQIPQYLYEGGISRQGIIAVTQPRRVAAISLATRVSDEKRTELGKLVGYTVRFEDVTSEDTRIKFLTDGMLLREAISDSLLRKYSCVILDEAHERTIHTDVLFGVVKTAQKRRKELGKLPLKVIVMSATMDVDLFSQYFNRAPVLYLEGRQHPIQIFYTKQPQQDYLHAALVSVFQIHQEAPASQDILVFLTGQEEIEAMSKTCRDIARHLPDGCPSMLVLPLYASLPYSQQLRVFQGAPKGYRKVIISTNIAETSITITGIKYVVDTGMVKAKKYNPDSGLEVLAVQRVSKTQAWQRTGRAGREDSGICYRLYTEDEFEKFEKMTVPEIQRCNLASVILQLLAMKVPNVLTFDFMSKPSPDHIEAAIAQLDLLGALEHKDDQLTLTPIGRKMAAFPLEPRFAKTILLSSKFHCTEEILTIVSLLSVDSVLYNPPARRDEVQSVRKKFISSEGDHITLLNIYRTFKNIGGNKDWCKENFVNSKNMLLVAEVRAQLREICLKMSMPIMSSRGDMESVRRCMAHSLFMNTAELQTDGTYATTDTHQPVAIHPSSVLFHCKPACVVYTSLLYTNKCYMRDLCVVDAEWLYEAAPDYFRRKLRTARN
The experiment can be described thus: Inhibition of N-terminal/C-terminal 6x His-tagged wild type recombinant mouse DHX33 transformed in Escherichia coli BL21(DE3)pLysS cells.

The target in experiment [2] is T2, Probable ATP-dependent RNA helicase DHX40 (Homo sapiens, UniProt Q8IX18).
T2 sequence (Q8IX18 whole entry): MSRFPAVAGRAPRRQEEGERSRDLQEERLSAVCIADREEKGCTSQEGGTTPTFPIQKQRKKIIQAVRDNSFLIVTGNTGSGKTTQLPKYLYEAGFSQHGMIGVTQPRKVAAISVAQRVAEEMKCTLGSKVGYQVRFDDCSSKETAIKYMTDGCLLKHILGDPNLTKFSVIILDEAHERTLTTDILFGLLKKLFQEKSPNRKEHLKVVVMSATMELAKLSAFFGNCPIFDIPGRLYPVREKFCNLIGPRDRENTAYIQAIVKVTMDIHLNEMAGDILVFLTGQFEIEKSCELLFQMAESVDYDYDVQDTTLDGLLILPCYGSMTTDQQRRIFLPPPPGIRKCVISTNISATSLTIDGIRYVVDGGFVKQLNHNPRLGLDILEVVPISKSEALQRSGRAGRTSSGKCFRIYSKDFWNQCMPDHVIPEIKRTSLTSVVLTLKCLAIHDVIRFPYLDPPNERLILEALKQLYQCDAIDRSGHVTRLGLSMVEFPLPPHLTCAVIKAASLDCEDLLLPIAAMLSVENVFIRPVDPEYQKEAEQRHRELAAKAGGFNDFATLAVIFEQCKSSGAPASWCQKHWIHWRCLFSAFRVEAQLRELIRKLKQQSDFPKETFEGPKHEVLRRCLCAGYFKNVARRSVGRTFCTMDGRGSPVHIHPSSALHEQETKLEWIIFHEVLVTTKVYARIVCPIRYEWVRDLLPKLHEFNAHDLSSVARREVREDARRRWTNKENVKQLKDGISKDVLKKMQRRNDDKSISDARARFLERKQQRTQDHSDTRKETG
The experiment can be described thus: Inhibition of N-terminal thioredoxin-tagged human recombinant DHX40 transformed in Escherichia coli BL21(DE3)pLysS cells.

For experiment [3], the target named is ATP-dependent RNA helicase DHX15 (Homo sapiens, UniProt O43143). The experiment can be described thus: Inhibition of N-terminal thioredoxin-tagged human recombinant DHX15 transformed in Escherichia coli BL21(DE3)pLysS cells.
The next experiment deals with T3, Nucleolar RNA helicase 2 (Homo sapiens, UniProt Q9NR30).
T3 sequence (Q9NR30 whole entry): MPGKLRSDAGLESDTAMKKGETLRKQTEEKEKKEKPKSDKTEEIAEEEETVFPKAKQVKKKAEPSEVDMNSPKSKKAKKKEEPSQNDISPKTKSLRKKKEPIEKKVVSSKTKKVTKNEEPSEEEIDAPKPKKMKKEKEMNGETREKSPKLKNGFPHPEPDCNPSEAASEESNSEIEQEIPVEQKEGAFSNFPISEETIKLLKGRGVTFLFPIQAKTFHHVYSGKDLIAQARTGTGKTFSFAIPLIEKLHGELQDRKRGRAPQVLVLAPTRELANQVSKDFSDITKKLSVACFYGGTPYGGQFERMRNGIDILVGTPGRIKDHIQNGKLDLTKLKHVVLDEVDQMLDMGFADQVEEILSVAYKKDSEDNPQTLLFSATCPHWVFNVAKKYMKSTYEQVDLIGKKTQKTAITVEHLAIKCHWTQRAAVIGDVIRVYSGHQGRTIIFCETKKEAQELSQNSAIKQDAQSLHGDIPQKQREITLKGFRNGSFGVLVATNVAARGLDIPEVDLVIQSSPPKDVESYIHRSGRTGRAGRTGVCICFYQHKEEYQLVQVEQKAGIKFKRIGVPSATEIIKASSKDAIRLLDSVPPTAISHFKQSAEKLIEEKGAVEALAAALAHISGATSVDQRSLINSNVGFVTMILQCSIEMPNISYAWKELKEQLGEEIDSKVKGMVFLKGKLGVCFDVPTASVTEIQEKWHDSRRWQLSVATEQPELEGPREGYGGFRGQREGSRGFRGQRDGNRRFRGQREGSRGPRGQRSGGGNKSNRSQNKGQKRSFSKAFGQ
The experiment can be described thus: Inhibition of N-terminal thioredoxin-tagged human recombinant DDX21 transformed in Escherichia coli BL21(DE3)pLysS cells.

Experiment [4] has as its target T4, Probable ATP-dependent RNA helicase DDX6 (Homo sapiens, UniProt P26196).
T4 sequence (P26196 whole entry): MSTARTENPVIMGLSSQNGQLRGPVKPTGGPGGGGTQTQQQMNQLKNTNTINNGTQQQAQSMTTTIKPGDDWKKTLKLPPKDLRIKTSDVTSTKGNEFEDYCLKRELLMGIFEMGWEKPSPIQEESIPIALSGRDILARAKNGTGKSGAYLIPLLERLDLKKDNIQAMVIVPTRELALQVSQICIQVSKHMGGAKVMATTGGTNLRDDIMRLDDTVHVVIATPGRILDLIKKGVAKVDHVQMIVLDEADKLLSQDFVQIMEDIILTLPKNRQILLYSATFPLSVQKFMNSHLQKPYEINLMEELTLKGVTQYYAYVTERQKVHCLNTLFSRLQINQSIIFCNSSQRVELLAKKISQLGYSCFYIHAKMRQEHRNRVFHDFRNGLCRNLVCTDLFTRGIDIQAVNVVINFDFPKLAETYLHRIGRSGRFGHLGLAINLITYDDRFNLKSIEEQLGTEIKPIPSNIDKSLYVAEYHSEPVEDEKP
The experiment can be described thus: Inhibition of N-terminal thioredoxin-tagged human recombinant DDX6 transformed in Escherichia coli BL21(DE3)pLysS cells.

Sequence of ATP-dependent RNA helicase DHX15 (O43143 whole entry): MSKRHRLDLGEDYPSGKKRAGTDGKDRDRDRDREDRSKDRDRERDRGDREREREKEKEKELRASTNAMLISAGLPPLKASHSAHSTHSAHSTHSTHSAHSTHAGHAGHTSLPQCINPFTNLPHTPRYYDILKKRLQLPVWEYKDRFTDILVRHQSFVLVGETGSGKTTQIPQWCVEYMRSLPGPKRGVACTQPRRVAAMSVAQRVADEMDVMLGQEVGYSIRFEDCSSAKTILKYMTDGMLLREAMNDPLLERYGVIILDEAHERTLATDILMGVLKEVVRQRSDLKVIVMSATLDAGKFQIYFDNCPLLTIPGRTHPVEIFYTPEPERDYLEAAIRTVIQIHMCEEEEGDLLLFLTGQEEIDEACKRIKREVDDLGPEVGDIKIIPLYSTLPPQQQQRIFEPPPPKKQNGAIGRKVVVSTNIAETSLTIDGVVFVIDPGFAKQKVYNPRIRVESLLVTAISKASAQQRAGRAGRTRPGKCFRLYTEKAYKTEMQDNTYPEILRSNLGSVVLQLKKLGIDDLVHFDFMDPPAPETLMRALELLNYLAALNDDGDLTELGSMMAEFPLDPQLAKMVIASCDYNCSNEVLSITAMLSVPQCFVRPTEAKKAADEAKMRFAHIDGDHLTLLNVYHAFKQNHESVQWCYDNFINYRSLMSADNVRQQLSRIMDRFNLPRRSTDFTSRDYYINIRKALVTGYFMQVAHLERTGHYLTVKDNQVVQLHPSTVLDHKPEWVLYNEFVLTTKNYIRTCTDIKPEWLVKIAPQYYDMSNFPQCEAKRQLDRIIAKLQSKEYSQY

Take `COc1ccc2nc(NC(=O)c3cc(C)n(-c4sc(C)cc4C#N)c3C)[nH]c2c1`: the IC50 (commonly the midpoint of a concentration-inhibition curve) in experiment [1] was 0.019 µM; in experiment [2] it was over 100 µM; in experiment [3], 6.3 µM; on Nucleolar RNA helicase 2, over 100 µM; in experiment [4], over 100 µM.
